According to patent publication US9274100B2, “Method for optical measuring variations of cell membrane conductance” (OSPEDALE SAN RAFFAELE S.R.L., priority 2009, dated 2016):

Assays:
[1] = test system: HeLa cells; experiment: Optical detection of changes in plasma membrane conductance induced by streptolysin-O (fast-VSD, electric current pulses, internal control); format: cell-based; settings: increasing streptolysin-O concentration (50, 100 and 150 units), hyperpolarising and depolarising responses
Procedure: (§1) Before the experiment, cells were washed with a Krebs-Ringer's solution buffered with HEPES (KRH; in mM: 150 NaCl, 5 KCl, 1.2 MgSO4, 1.2 KH2PO4, 2 CaCl2, 10 glucose, and 10 HEPES, pH 7.4) and incubated with […] di-4-ANEPPS, a fast-VSD (Invitrogen).
(§2) Conductance changes were monitored by measuring the change in fluorescence induced by electric current pulses, quantified as the difference between the mean of plateau values (either positive or negative, depending on the type of stimulus and geometry of the cell) and the mean of pre-stimulation values divided by the mean of pre-stimulation values, ΔF %. As detailed above, normalisation for the values prevailing before stimulation provided a correction for dye bleaching during the experiment, so that fluorescence changes produced by additional stimuli could be compared. […]
(§3) The responsivity to the molecule active on membrane permeability was determined according to two different protocols: • Estimation of conductance with internal control (responses, before and after exposure to the experimental treatment, measured on the same pixels). […]
(§4) Afterward, membrane potential changes evoked by current pulses of fixed intensity were calculated within the same subcellular regions identified by the functional mask after exposure to the experimental treatment. […]

[2] = test system: HeLa cells; experiment: Optical detection of changes in membrane conductance induced by aspecific permeabilization (fast-VSD, electric current pulses, internal control); format: cell-based; settings: measures up to four minutes after administration, conductance normalised to value at t=0
Procedure: as §1, §2, §3, §4

| Substance | Fast-VSD fluorescence variation during unipolar square pulse [1] | effect on membrane conductance ([2]; 0.05% volume) | effect on membrane conductance ([2]; 0.5% volume) |
| --- | --- | --- | --- |
| streptolysin-O: bacterial protein able to insert into the eukaryotic plasma membrane where it forms a non selective ionic channel | clear reduction in the fluorescence variation | – | – |
| triton X-100 | – | negligible effect | marked drop |
